# Source: PMC9599461, “Stereoselectivity in the Membrane Transport of Phenylethylamine Derivatives by Human Monoamine Transporters and Organic Cation Transporters 1, 2, and 3” (Biomolecules, 2022)
# Read-outs that look alike come from different tables or passages of the source.
# Key:
# OCT3 = target: T1, OCT3 (Homo sapiens, UniProt O75751); assay: Stereoselective uptake into OCT3-overexpressing HEK293 cells; conditions: for Clint ± SEM / Stereoselectivity Vmax / Stereoselectivity Km: OCT3; for Clint ± SEM: quotient of vmax over Km; for Stereoselectivity Vmax / Stereoselectivity Km: ratio between enantiomers; for Stereoselectivity Vmax: given as for (R) or for 1; for Stereoselectivity Km: given as for (R) or for 1 (first-eluting); for selectivity ratio at 2 min: human;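 on all read-outs here: intracellular accumulation in HEK293 cells measured by chiral HPLC-MS/MS after a 2 min substrate exposure at 37 °C, uptake normalized to total protein (bicinchoninic acid assay)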
# T1 sequence (O75751 1-556): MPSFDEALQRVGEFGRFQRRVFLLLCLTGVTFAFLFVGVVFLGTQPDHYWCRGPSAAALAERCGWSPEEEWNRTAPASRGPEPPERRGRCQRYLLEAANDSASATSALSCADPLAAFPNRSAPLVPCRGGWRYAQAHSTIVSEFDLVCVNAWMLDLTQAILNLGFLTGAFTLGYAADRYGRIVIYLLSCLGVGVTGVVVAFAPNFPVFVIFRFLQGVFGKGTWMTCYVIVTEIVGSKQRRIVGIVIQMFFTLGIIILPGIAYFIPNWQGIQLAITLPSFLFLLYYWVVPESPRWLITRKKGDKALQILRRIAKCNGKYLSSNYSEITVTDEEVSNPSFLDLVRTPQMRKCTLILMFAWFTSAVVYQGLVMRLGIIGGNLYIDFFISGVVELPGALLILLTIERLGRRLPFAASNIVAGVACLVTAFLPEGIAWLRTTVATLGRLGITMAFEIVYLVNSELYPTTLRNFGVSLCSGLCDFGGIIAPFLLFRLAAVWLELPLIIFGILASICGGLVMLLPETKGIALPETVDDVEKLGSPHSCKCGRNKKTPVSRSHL
# SERT [1] = target: T2, SERT (Homo sapiens, UniProt P31645); assay: in vitro;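 further: uptake into HEK293 cells stably expressing human SERT over 2 min, enantiomers measured in cell lysate by chiral HPLC-MS/MS, normalized to total protein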
# OCT2 [2] = target: T3, OCT2 (Homo sapiens, UniProt O15244, S270A); assay: Stereoselective uptake into OCT2 (wild-type)-overexpressing HEK293 cells; conditions: OCT2, ratio between enantiomers
# T3 sequence (O15244 1-555 S270A): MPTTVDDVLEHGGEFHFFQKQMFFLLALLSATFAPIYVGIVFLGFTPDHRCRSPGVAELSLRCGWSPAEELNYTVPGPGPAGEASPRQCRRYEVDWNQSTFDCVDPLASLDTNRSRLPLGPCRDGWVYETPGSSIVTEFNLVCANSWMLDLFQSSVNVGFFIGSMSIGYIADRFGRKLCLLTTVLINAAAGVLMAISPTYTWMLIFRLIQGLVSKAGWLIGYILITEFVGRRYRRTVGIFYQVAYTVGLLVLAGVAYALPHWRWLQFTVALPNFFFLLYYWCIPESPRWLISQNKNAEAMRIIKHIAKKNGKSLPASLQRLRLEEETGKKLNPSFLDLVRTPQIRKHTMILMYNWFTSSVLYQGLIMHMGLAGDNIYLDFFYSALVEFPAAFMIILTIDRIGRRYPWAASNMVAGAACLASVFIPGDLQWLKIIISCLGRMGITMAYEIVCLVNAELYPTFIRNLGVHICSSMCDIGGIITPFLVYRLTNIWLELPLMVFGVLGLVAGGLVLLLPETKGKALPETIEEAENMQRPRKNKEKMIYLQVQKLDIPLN
# OCT2 [3] = target: T4, OCT2 (Homo sapiens, UniProt O15244); assay: as above; conditions: for Clint ± SEM / selectivity ratio at 2 min: OCT2; for Clint ± SEM: quotient of vmax over Km; for selectivity ratio at 2 min: human, ratio between enantiomers
# T4 sequence (O15244 1-555 S270A): T3 sequence (O15244 1-555 S270A)
# [4] = system: OCT2 wild-type versus A270S variant; assay: in vitro; conditions: human, Transporter selectivity, OCT2 wild-type versus A270S, 100 μM racemic substance, two minutes
# Method: (§1) All transport experiments were carried out in HEK293 cells stably overexpressing human MATs or OCTs. […] All cells were regularly cultivated in DMEM supplemented with 10% (v/v) FCS, penicillin (100 U/mL) and streptomycin (100 μg/mL)and kept in culture for no longer than 30 passages.
# (§2) For the uptake experiments, 300,000 cells were plated in poly-D-lysine precoated 24-well plates 48 h ahead of the transport experiment. On the day of experiment, cells were initially washed once with 37 °C pre-warmed HBSS+ (Hanks buffered salt solution supplemented with 10 mM HEPES) and subsequently incubated with the substrates dissolved in pre-warmed HBSS+ for exactly two minutes. Incubation was stopped by adding ice-cold HBSS+ followed by two washing steps. After this, cells were lysed with 80% acetonitrile containing 10 ng/mL milnacipran as internal standard for high-performance liquid chromatography coupled to tandem mass spectrometry (HPLC-MS/MS) analysis. For every experiment, two additional wells per cell line were lysed using RIPA buffer for protein quantification. Total protein was quantified using the bicinchoninic acid assay [42]. This was later used for normalization of the uptake data.
# (§3) Intracellularly accumulated test substances were quantified by HPLC-MS/MS analysis using a Shimadzu Nexera HPLC system with a SIL-30AC autosampler, a CTO-20AC column oven, a LC-30AD pump, and a CBM-20A controller (Shimadzu, Kyoto, Japan). Stereoselective chromatography was carried out on a [sequence] CBH HPLC column (100 × 3 mm inner dimension with 5 μM particle size; Sigma-Aldrich, Darmstadt, Germany) with a corresponding 10 × 3 mm guard column. Reversed phased chromatography was carried out using an ammonium acetate (NH4Ac) buffered aqueous mobile phase with isopropyl alcohol (IPA) as organic solvent. […] The order of elution of the enantiomers was obtained from available reference literature [43] or by applying enantiopure reference compounds to the chiral HPLC. […] However, in every other case where the order of elution was available, the (R)-enantiomer eluted first. Given the structural similarity of the investigated substances and the fact that separation was performed on the same column with almost identical mobile phases, we assume that this order of elution for our compound set is always the (R)- before the (S)-enantiomer.
# (§4) Detection was performed with an API 4000 tandem mass spectrometer (AB SCIEX, Darmstadt, Germany) operating in multiple-reaction-monitoring mode. Quantification was performed using the Analyst 1.6.2 software (AB SCIEX, Darmstadt, Germany) and quantified by comparison to standard curves with known concentrations.
# (§5) All uptake data were normalized to protein content to account for variation in the number of seeded sells. Transporter-mediated net uptake was calculated by subtracting uptake into empty vector-transfected control cells from uptake into transporter-transfected cells. Kinetic parameters were then determined after non-linear regression following the Michaelis–Menten equation (v = vmax × [S]/(Km + [S])) using GraphPad Prism (Version 5.01 for Windows, GraphPad Software, La Jolla, CA, USA). Vmax refers to the maximum transport velocity and Km is defined as the substance concentration required to reach half of vmax. The intrinsic clearance Clint was calculated as the quotient of vmax over Km.
# (§6) HEK293 cells stably overexpressing wild-type or mutant OCT2 were incubated with 100 μM racemic substance for two minutes.
# NET = NET (Homo sapiens, UniProt P23975); assay: Stereoselective uptake into NET-overexpressing HEK293 cells; conditions: for Clint ± SEM: quotient of vmax over Km; for selectivity ratio at 2 min: human;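 on all read-outs here: intracellular enantiomers quantified in cell lysates by chiral HPLC-MS/MS after a 2 min substrate incubation, with uptake normalized to total cellular protein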
# DAT = DAT (Homo sapiens, UniProt Q01959); assay: Stereoselective uptake into DAT-overexpressing HEK293 cells; conditions: for Saturable net uptake / Clint ± SEM / Stereoselectivity Vmax / Stereoselectivity Km: DAT; for Saturable net uptake: result in words; for Clint ± SEM: quotient of vmax over Km; for Stereoselectivity Vmax / Stereoselectivity Km: ratio between enantiomers; for selectivity ratio at 2 min: human;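 on all read-outs here: intracellular accumulation measured by chiral HPLC-MS/MS in stably transfected HEK293 cells, normalized to total protein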
# Method: as §1, §2
# Intracellularly accumulated test substances were quantified by HPLC-MS/MS analysis using a Shimadzu Nexera HPLC system with a SIL-30AC autosampler, a CTO-20AC column oven, a LC-30AD pump, and a CBM-20A controller (Shimadzu, Kyoto, Japan). Stereoselective chromatography was carried out on a [sequence] CBH HPLC column (100 × 3 mm inner dimension with 5 μM particle size; Sigma-Aldrich, Darmstadt, Germany) with a corresponding 10 × 3 mm guard column. Reversed phased chromatography was carried out using an ammonium acetate (NH4Ac) buffered aqueous mobile phase with isopropyl alcohol (IPA) as organic solvent. […] The order of elution of the enantiomers was obtained from available reference literature [43] or by applying enantiopure reference compounds to the chiral HPLC. […] Given the structural similarity of the investigated substances and the fact that separation was performed on the same column with almost identical mobile phases, we assume that this order of elution for our compound set is always the (R)- before the (S)-enantiomer.
# as §4, §5
# OCT1 = target: T5, OCT1 (Homo sapiens, UniProt O15245); assay: Stereoselective uptake into OCT1-overexpressing HEK293 cells; conditions: for Clint ± SEM: quotient of vmax over Km; for selectivity ratio at 2 min: human;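 on all read-outs here: enantiomers quantified inside cells by chiral HPLC-MS/MS, uptake normalized to total protein from bicinchoninic acid assay, substrates applied in HBSS+ buffer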
# T5 sequence (O15245 1-554): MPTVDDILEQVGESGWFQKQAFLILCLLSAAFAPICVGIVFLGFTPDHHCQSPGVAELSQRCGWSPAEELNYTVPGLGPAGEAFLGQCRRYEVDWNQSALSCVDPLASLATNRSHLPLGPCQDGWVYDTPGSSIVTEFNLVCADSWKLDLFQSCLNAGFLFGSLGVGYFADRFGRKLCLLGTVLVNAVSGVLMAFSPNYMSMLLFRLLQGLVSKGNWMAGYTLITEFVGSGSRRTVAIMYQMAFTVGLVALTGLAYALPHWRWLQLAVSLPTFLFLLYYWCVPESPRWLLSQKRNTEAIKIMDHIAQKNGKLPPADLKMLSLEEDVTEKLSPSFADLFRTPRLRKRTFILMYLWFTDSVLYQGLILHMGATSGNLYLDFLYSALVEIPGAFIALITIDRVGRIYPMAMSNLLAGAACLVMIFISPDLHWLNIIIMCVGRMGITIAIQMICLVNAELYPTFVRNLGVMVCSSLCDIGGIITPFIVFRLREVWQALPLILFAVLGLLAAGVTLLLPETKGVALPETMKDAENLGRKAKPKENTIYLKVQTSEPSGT
# SERT [5] = target: T2, SERT; assay: Stereoselective uptake into SERT-overexpressing HEK293 cells; conditions: for Clint ± SEM: quotient of vmax over Km;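 on all read-outs here: uptake into HEK293 cells stably expressing human SERT over 2 min, enantiomers measured in cell lysate by chiral HPLC-MS/MS, normalized to total protein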
# OCT2 A270S variant = assay: Stereoselective uptake into OCT2 A270S variant-overexpressing HEK293 cells; conditions: 100 μM racemic substance, two minutes;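 further: uptake into HEK293 cells stably overexpressing human OCT2 variants, intracellular enantiomers quantified by chiral HPLC-MS/MS and normalized to total protein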
# Method: as §1, §2, §3, §4, §5, §6
# [6] = given as for (R) or for 1 (first-eluting)
# [7] = NET, ratio between enantiomers, given as for (R) or for 1
# [8] = Stereoselectivity ClInt, given as for (R) or for 1
# [9] = Stereoselectivity Vmax, given as for (R) or for 1
# [10] = Stereoselectivity Km, OCT1, ratio between enantiomers, given as for (S) or for 2 (second-eluting)
# [11] = Stereoselectivity Vmax, OCT1, ratio between enantiomers, given as for (R) or for 1
# [12] = Stereoselectivity Km, given as for (R) or for 1 (first-eluting)
# Chain of DAT (Q01959 whole entry): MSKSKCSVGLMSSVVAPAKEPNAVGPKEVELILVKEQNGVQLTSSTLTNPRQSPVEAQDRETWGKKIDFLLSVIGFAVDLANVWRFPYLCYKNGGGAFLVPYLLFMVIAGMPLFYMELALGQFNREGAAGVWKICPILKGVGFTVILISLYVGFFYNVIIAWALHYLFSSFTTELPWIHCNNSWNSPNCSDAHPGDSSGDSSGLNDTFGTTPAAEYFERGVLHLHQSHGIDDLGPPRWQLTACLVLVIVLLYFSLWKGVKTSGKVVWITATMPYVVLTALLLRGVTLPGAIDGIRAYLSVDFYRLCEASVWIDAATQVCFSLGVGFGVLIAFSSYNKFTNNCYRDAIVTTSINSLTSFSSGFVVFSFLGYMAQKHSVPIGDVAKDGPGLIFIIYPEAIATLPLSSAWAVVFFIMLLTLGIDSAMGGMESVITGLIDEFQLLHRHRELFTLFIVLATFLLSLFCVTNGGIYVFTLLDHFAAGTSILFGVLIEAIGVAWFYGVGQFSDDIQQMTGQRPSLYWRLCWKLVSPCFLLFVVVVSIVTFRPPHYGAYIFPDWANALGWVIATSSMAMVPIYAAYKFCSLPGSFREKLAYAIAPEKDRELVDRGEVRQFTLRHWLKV
# Chain of NET (P23975 whole entry): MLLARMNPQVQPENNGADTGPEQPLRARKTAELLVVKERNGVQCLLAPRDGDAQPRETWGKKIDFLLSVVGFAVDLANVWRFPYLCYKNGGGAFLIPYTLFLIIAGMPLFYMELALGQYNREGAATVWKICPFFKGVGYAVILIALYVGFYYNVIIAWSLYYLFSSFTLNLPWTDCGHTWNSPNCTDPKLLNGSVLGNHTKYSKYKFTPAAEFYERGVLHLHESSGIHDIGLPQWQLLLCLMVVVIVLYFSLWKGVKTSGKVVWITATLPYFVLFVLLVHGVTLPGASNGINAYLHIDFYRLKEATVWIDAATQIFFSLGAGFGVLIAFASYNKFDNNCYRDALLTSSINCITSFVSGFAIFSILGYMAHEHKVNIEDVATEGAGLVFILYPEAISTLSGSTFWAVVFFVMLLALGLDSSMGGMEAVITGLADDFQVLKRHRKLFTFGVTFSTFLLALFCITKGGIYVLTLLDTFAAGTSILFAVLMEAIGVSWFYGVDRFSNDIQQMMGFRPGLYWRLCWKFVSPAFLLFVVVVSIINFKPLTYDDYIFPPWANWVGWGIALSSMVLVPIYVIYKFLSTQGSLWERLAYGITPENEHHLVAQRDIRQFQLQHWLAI
# T2 sequence (P31645 whole entry): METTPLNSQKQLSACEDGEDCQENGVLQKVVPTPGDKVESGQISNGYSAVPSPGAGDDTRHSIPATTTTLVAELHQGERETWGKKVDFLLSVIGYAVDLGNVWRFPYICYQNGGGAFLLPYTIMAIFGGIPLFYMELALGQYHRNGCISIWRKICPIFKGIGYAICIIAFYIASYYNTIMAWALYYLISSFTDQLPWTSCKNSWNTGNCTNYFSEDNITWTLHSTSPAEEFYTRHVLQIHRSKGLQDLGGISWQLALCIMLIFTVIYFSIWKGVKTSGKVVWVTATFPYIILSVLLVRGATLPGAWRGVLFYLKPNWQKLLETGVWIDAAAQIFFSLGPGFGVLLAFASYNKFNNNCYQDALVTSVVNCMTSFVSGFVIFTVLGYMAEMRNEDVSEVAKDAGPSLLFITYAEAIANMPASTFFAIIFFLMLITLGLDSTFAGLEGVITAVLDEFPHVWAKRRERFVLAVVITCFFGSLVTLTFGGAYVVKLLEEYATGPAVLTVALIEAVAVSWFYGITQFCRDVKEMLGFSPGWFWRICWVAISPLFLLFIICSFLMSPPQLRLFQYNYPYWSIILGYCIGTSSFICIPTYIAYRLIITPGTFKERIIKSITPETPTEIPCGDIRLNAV
SMILES,Clint ± SEM (OCT3),Stereoselectivity Vmax (OCT3),Stereoselectivity Km (OCT3),selectivity ratio at 2 min (OCT3),selectivity ratio (SERT [1]),Clint ± SEM (OCT2 [3]),"selectivity ratio at 2 min, 100 μM ([4]; given as for WT)",Clint ± SEM (NET; NET),Stereoselectivity Vmax (NET; [7]),selectivity ratio at 2 min (NET),Saturable net uptake (DAT),Clint ± SEM (OCT1; OCT1),Clint ± SEM (SERT [5]; SERT),selectivity ratio at 2 min (OCT2 [3]; [8]),selectivity ratio at 2 min (OCT2 [3]; [9]),selectivity ratio at 2 min (OCT1; Stereoselectivity ClInt),selectivity ratio at 2 min (OCT1; [10]),selectivity ratio at 2 min (OCT1; [11]),Stereoselectivity Km (SERT [5]),Stereoselectivity Vmax (SERT [5]),other results
"COc1cc(C(O)CN)ccc1O (single isomer, unassigned) [Normetanephrine-1, Normetanephrine]",19.4 mL × g Protein^−1 × min^−1,1.09 fold,1.22 fold,1.12,1.28,9.24 mL × g Protein^−1 × min^−1,1.21,2.71 mL × g Protein^−1 × min^−1,1.06 fold,1.28,No saturable net uptake,2.46 mL × g Protein^−1 × min^−1,2.23 mL × g Protein^−1 × min^−1,,,,,,,,"Stereoselectivity ClInt (OCT2 [2]; given as for (R) or for 1): 1.56 fold; Stereoselectivity Km (OCT2 [2]; [6]): 1.32 fold; Stereoselectivity Vmax (OCT2 [2]; given as for (S) or for 2): 2.06 fold; Stereoselectivity Km (NET; NET, ratio between enantiomers, given as for (R) or for 1 (first-eluting)): 1.35 fold; Stereoselectivity Vmax (OCT1; OCT1, ratio between enantiomers, given as for (R) or for 1): 1.47 fold; Stereoselectivity Km (OCT1; OCT1, ratio between enantiomers, given as for (R) or for 1 (first-eluting)): 1.59 fold; Stereoselectivity ClInt (OCT1; OCT1, ratio between enantiomers, given as for (S) or for 2): 1.08 fold; Stereoselectivity Km (SERT [5]; SERT, ratio between enantiomers, given as for (R) or for 1 (first-eluting)): 1.08 fold; Stereoselectivity Vmax (SERT [5]; SERT, ratio between enantiomers, given as for (S) or for 2): 1.67 fold"
"CNCC(O)c1ccc(O)c(OC)c1 (single isomer, unassigned) [Metanephrine-1, Metanephrine]",25.9 mL × g Protein^−1 × min^−1,1.19 fold,1.19 fold,1,1.01,20.6 mL × g Protein^−1 × min^−1,,,,,No saturable net uptake,8.09 mL × g Protein^−1 × min^−1,0.58 mL × g Protein^−1 × min^−1,2.66,2.13,1.16,1.09,1.06,1.09 fold,1.08 fold,"Vmax ± SEM (OCT2 [3]; HEK293 cells overexpressing human OCT2, racemic substrate, two minutes, net uptake): 1127 pmol × mg Protein^−1 × min^−1; selectivity ratio at 2 min (OCT2 [3]; Stereoselectivity Km, given as for (S) or for 2 (second-eluting)): 1.25; selectivity ratio at 2 min, 100 μM ([4]; given as for A270S): 1.2; Net uptake by A270S variant in comparison to the wild-type (OCT2 A270S variant): 120%; Saturable net uptake (NET; NET, result in words): No saturable net uptake; Vmax ± SEM (OCT1; HEK293 cells overexpressing human OCT1, racemic substrate, two minutes, net uptake): 1082 pmol × mg Protein^−1 × min^−1"
CNC[C@H](O)c1cccc(O)c1 [(R)-Phenylephrine],11.8 mL × g Protein^−1 × min^−1,3.33 fold,1.19 fold,2.79,2.82,29.5 mL × g Protein^−1 × min^−1,1.27,75.5 mL × g Protein^−1 × min^−1,1.79 fold,1.43,,9.79 mL × g Protein^−1 × min^−1,17.2 mL × g Protein^−1 × min^−1,,2.04,1.11,1.02,1.08,1.89 fold,1.49 fold,"selectivity ratio at 2 min (OCT2 [3]; Stereoselectivity ClInt, given as for (S) or for 2): 1.02; selectivity ratio at 2 min (OCT2 [3]; [12]): 1.89; Vmax ± SEM (NET; HEK293 cells overexpressing human NET, racemic substrate, two minutes, net uptake): 392 pmol × mg Protein^−1 × min^−1; Km (NET; read-out: Km ± SEM, HEK293 cells overexpressing human NET, racemic substrate, two minutes, net uptake minus empty vector control): 5.12 µM; Clint ± SEM (DAT): 17.2 mL × g Protein^−1 × min^−1; Stereoselectivity Vmax (DAT; given as for (R) or for 1): 1.56 fold; Stereoselectivity Km (DAT; [6]): 1.06 fold; Vmax ± SEM (DAT; HEK293 cells overexpressing human DAT, racemic substrate, two minutes, net uptake): 613 pmol × mg Protein^−1 × min^−1; selectivity ratio at 2 min (DAT): 1.48; Km (DAT; read-out: Km ± SEM, HEK293 cells overexpressing human DAT, racemic substrate, two minutes, net uptake minus empty vector control): 35.6 µM; Vmax ± SEM (SERT [5]): 356; Km (SERT [5]; read-out: Km ± SEM, HEK293 cells overexpressing human SERT, racemic substrate, two minutes, net uptake minus empty vector control): 328 µM"
"NCC(O)c1cccc(O)c1 (single isomer, unassigned) [Norphenylephrine-1, Norphenylephrine]",11.0 mL × g Protein^−1 × min^−1,3.88 fold,1.17 fold,3.32,1.53,36.4 mL × g Protein^−1 × min^−1,1.18,189 mL × g Protein^−1 × min^−1,,1.21,,4.02 mL × g Protein^−1 × min^−1,1.20 mL × g Protein^−1 × min^−1,1.4,2.19,1.05,,1.08,1.20 fold,1.27 fold,"selectivity ratio at 2 min (OCT2 [3]; [12]): 1.57; Stereoselectivity Vmax (NET; NET, ratio between enantiomers, given as for (S) or for 2): 1.25 fold; Clint ± SEM (DAT): 128 mL × g Protein^−1 × min^−1; Stereoselectivity Vmax (DAT; given as for (S) or for 2): 1.55 fold; Stereoselectivity Km (DAT; given as for (S) or for 2 (second-eluting)): 1.20 fold; selectivity ratio at 2 min (DAT): 1.29; selectivity ratio at 2 min (OCT1; Stereoselectivity Km, OCT1, ratio between enantiomers, given as for (R) or for 1 (first-eluting)): 1.03"
